The supplement of paper PMC10307832

Experiments:
Assay in all cases: relative viability (nuclei count vs DMSO), 5 days (fraction); higher = more cells survive
[1] = tested on: NCI-H2023
Summary of the method: (§1)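 Values are medians from duplicate plates. Each reflects relative viability, defined as the nuclei count of treated wells over that of vehicle wells. Lung cancer cell lines in 1536-well plates were pin-tool dosed one day after seeding with one drug alone or with a fixed anchor-drug dose plus five library-drug doses (not always all listed) in √10 steps, then fixed, stained and imaged at 4× after 5 days.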

[2] = tested on: NCI-H23
Summary of the method: as §1

[3] = tested on: HOP-62
Summary of the method: as §1

[4] = tested on: NCI-H322M
Summary of the method: as §1

[5] = tested on: NCI-H441
Summary of the method: as §1

[6] = tested on: NCI-H650
Summary of the method: as §1

[7] = tested on: NCI-H2009
Summary of the method: as §1

[8] = tested on: NCI-H1792
Summary of the method: as §1

[9] = tested on: NCI-H727
Summary of the method: as §1

[10] = tested on: NCI-H2170
Summary of the method: as §1

[11] = tested on: NCI-H1437
Summary of the method: as §1

[12] = tested on: NCI-H1755
Summary of the method: as §1

[13] = tested on: UMC-11
Summary of the method: as §1

[14] = tested on: HCC-78
Summary of the method: as §1

[15] = tested on: LCLC-97TM1
Summary of the method: as §1

[16] = tested on: LOU-NH91
Summary of the method: as §1

[17] = tested on: NCI-H1355
Summary of the method: as §1

[18] = tested on: RERF-LC-KJ
Summary of the method: as §1

[19] = tested on: ChaGo-K-1
Summary of the method: as §1

[20] = tested on: SK-MES-1
Summary of the method: as §1

[21] = tested on: NCI-H2085
Summary of the method: as §1

[22] = tested on: NCI-H2405
Summary of the method: as §1

Compound: O=c1[nH]c2ccccc2n1C1CCN(CCCC(c2ccc(F)cc2)c2ccc(F)cc2)CC1 [Pimozide] + CC(=O)Nc1cccc(-n2c(=O)n(C3CC3)c(=O)c3c(Nc4ccc(I)cc4F)n(C)c(=O)c(C)c32)c1 [Trametinib] (partner 0.02 µM)
- relative viability ([1]; first compound 0.08 µM): 0.584
- relative viability ([1]; first compound 0.253 µM): 0.532
- relative viability ([1]; first compound 0.8 µM): 0.582
- relative viability ([1]; first compound 2.53 µM): 0.429
- relative viability ([1]; first compound 8 µM): 0.362
- relative viability ([2]; first compound 0.08 µM): 0.377
- relative viability ([2]; first compound 0.253 µM): 0.369
- relative viability ([2]; first compound 0.8 µM): 0.291
- relative viability ([2]; first compound 2.53 µM): 0.369
- relative viability ([2]; first compound 8 µM): 0.318
- relative viability ([3]; first compound 0.08 µM): 0.362
- relative viability ([3]; first compound 0.253 µM): 0.347
- relative viability ([3]; first compound 2.53 µM): 0.328
- relative viability ([3]; first compound 8 µM): 0.389
- relative viability ([4]; first compound 0.08 µM): 0.402
- relative viability ([4]; first compound 0.253 µM): 0.505
- relative viability ([4]; first compound 0.8 µM): 0.538
- relative viability ([4]; first compound 2.53 µM): 0.546
- relative viability ([4]; first compound 8 µM): 0.54
- relative viability ([5]; first compound 0.08 µM): 0.425
- relative viability ([5]; first compound 0.253 µM): 0.463
- relative viability ([5]; first compound 0.8 µM): 0.335
- relative viability ([5]; first compound 2.53 µM): 0.565
- relative viability ([5]; first compound 8 µM): 0.315
- relative viability ([6]; first compound 0.08 µM): 0.97
- relative viability ([6]; first compound 0.253 µM): 0.962
- relative viability ([6]; first compound 0.8 µM): 0.885
- relative viability ([6]; first compound 2.53 µM): 1.06
- relative viability ([6]; first compound 8 µM): 0.974
- relative viability ([7]; first compound 0.08 µM): 0.256
- relative viability ([7]; first compound 0.253 µM): 0.276
- relative viability ([7]; first compound 0.8 µM): 0.284
- relative viability ([7]; first compound 2.53 µM): 0.321
- relative viability ([7]; first compound 8 µM): 0.225
- relative viability ([8]; first compound 0.08 µM): 0.466
- relative viability ([8]; first compound 0.253 µM): 0.412
- relative viability ([8]; first compound 0.8 µM): 0.36
- relative viability ([8]; first compound 2.53 µM): 0.393
- relative viability ([8]; first compound 8 µM): 0.454
- relative viability ([9]; first compound 0.08 µM): 0.396
- relative viability ([9]; first compound 0.253 µM): 0.426
- relative viability ([9]; first compound 0.8 µM): 0.383
- relative viability ([9]; first compound 2.53 µM): 0.443
- relative viability ([9]; first compound 8 µM): 0.403
- relative viability ([10]; first compound 0.08 µM): 0.943
- relative viability ([10]; first compound 0.253 µM): 0.874
- relative viability ([10]; first compound 0.8 µM): 0.832
- relative viability ([10]; first compound 2.53 µM): 0.83
- relative viability ([10]; first compound 8 µM): 0.857
- relative viability ([11]; first compound 0.08 µM): 0.652
- relative viability ([11]; first compound 0.253 µM): 0.495
- relative viability ([11]; first compound 0.8 µM): 0.441
- relative viability ([11]; first compound 2.53 µM): 0.376
- relative viability ([11]; first compound 8 µM): 0.412
- relative viability ([12]; first compound 0.08 µM): 0.748
- relative viability ([12]; first compound 0.253 µM): 0.766
- relative viability ([12]; first compound 0.8 µM): 0.736
- relative viability ([12]; first compound 2.53 µM): 0.761
- relative viability ([12]; first compound 8 µM): 0.712
- relative viability ([13]; first compound 0.08 µM): 0.602
- relative viability ([13]; first compound 0.253 µM): 0.675
- relative viability ([13]; first compound 0.8 µM): 0.655
- relative viability ([13]; first compound 2.53 µM): 0.681
- relative viability ([13]; first compound 8 µM): 0.918
- relative viability ([14]; first compound 0.08 µM): 0.704
- relative viability ([14]; first compound 0.8 µM): 0.688
- relative viability ([14]; first compound 2.53 µM): 0.776
- relative viability ([14]; first compound 8 µM): 0.757
- relative viability ([15]; first compound 0.08 µM): 0.191
- relative viability ([15]; first compound 0.253 µM): 0.189
- relative viability ([15]; first compound 0.8 µM): 0.166
- relative viability ([15]; first compound 2.53 µM): 0.185
- relative viability ([15]; first compound 8 µM): 0.207
- relative viability ([16]; first compound 0.08 µM): 0.649
- relative viability ([16]; first compound 0.253 µM): 0.822
- relative viability ([16]; first compound 0.8 µM): 0.755
- relative viability ([16]; first compound 2.53 µM): 0.841
- relative viability ([16]; first compound 8 µM): 0.819
- relative viability ([17]; first compound 0.08 µM): 0.382
- relative viability ([17]; first compound 0.253 µM): 0.428
- relative viability ([17]; first compound 0.8 µM): 0.411
- relative viability ([17]; first compound 2.53 µM): 0.39
- relative viability ([17]; first compound 8 µM): 0.454
- relative viability ([18]; first compound 0.08 µM): 0.851
- relative viability ([18]; first compound 0.253 µM): 0.778
- relative viability ([18]; first compound 0.8 µM): 0.742
- relative viability ([18]; first compound 2.53 µM): 0.764
- relative viability ([18]; first compound 8 µM): 0.609
- relative viability ([19]; first compound 0.08 µM): 0.873
- relative viability ([19]; first compound 0.253 µM): 0.871
- relative viability ([19]; first compound 0.8 µM): 0.851
- relative viability ([19]; first compound 2.53 µM): 0.872
- relative viability ([19]; first compound 8 µM): 0.874
- relative viability ([20]; first compound 0.08 µM): 0.533
- relative viability ([20]; first compound 0.253 µM): 0.517
- relative viability ([20]; first compound 0.8 µM): 0.508
- relative viability ([20]; first compound 2.53 µM): 0.744
- relative viability ([20]; first compound 8 µM): 0.441
- relative viability ([21]; first compound 0.08 µM): 0.659
- relative viability ([21]; first compound 0.253 µM): 0.625
- relative viability ([21]; first compound 0.8 µM): 0.583
- relative viability ([21]; first compound 2.53 µM): 0.404
- relative viability ([21]; first compound 8 µM): 0.399
- relative viability ([22]; first compound 0.08 µM): 0.606
- relative viability ([22]; first compound 0.253 µM): 0.65
- relative viability ([22]; first compound 0.8 µM): 0.621
- relative viability ([22]; first compound 2.53 µM): 0.491
- relative viability ([22]; first compound 8 µM): 0.36
